Common to all, as to format: in vivo
Assay [1] concerns Morningglory. The assay is described as follows: Pre-emergence herbicide test. The settings on record: Ipomoea, read-out: % plant inhibition (Mogl); for inhibition at 1120 g/ha: 1.12 kg/ha. In short, it runs like this:
(§1)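 Seeds or perennial propagules sown on compacted topsoil in pans; known amount of active ingredient in organic solvent (e.g., acetone) or water applied directly to seed bed, then covered with untreated topsoil. Greenhouse, bottom-watered; % inhibition scored about 10-14 days (usually 11 days) after seeding.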

Assay [2] concerns Yellow nutsedge. Nature of the assay: Pre-emergence herbicide test. The following applies: Cyperus, read-out: % plant inhibition (Yens); for inhibition at 1120 g/ha: 1.12 kg/ha. In outline: as §1
Assay [3] has as its system Indian Mustard. The assay is described as follows: Pre-emergence herbicide test. The following applies: Brassica juncea, read-out: % plant inhibition (Inmu); for inhibition at 1120 g/ha: 1.12 kg/ha. In outline:
as §1

The subject of assay [4] is Downy Brome. Nature of the assay: Pre-emergence herbicide test. The following applies: Bromus tectorum, read-out: % plant inhibition (Dobr); for inhibition at 1120 g/ha: 1.12 kg/ha. In outline:
as §1

For assay [5], the system named is Barnyardgrass. Nature of the assay: Pre-emergence herbicide test. The settings on record: Echinochloa crus-galli, read-out: % plant inhibition (Bygr); for inhibition at 1120 g/ha: 1.12 kg/ha. In short, it runs like this:
as §1

The test system of assay [6] is Velvetleaf. The assay is described as follows: Pre-emergence herbicide test. The settings on record: Abutilon theophrasti, read-out: % plant inhibition (Vele); for inhibition at 1120 g/ha: 1.12 kg/ha. In short, it runs like this:
as §1

Assay [7] relates to Cocklebur. Nature of the assay: Pre-emergence herbicide test. The following applies: Xanthium strumarium, read-out: % plant inhibition (Cobu); for inhibition at 1120 g/ha: 1.12 kg/ha. In outline:
as §1

In assay [8] the test system is Annual bluegrass. Nature of the assay: Pre-emergence herbicide test. The settings on record: read-out: % plant inhibition (Anbg); for inhibition at 1120 g/ha: 1.12 kg/ha. In short, it runs like this:
as §1

Assay [9] relates to Seedling johnsongrass. The assay is described as follows: Pre-emergence herbicide test. The settings on record: Sorghum halepense, read-out: % plant inhibition (Sejg); for inhibition at 1120 g/ha: 1.12 kg/ha. In outline: as §1
The subject of assay [10] is Wild buckwheat. Nature of the assay: Pre-emergence herbicide test. The following applies: Fallopia convolvulus, read-out: % plant inhibition (Wibw); for inhibition at 1120 g/ha: 1.12 kg/ha. In outline:
as §1

Assay [11] deals with Morningglory. Nature of the assay: Post-emergence herbicide test. The settings on record: Ipomoea, read-out: % plant inhibition (Mogl); for inhibition at 1120 g/ha: 1.12 kg/ha. In outline:
(§2)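 Injury scored as percent inhibition against untreated control, usually at 11 days and occasionally at 25 days post-treatment. Greenhouse plants (2–3 weeks) received an atomized spray (~0.4% emulsifier, 1870 L/Ha, 10 psig).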

Assay [12] relates to Yellow nutsedge. The assay is described as follows: Post-emergence herbicide test. The settings on record: Cyperus, read-out: % plant inhibition (Yens); for inhibition at 1120 g/ha: 1.12 kg/ha. In short, it runs like this:
as §2

Assay [13] relates to Indian Mustard. The assay is described as follows: Post-emergence herbicide test. The settings on record: Brassica juncea, read-out: % plant inhibition (Inmu); for inhibition at 1120 g/ha: 1.12 kg/ha. In short, it runs like this:
as §2

Assay [14] concerns Downy Brome. Nature of the assay: Post-emergence herbicide test. The following applies: Bromus tectorum, read-out: % plant inhibition (Dobr); for inhibition at 1120 g/ha: 1.12 kg/ha. In short, it runs like this:
as §2

The subject of assay [15] is Barnyardgrass. The assay is described as follows: Post-emergence herbicide test. The following applies: Echinochloa crus-galli, read-out: % plant inhibition (Bygr); for inhibition at 1120 g/ha: 1.12 kg/ha. In short, it runs like this:
as §2

The test system of assay [16] is Velvetleaf. Nature of the assay: Post-emergence herbicide test. The settings on record: Abutilon theophrasti, read-out: % plant inhibition (Vele); for inhibition at 1120 g/ha: 1.12 kg/ha. In outline: as §2
Assay [17] has as its system Cocklebur. Nature of the assay: Post-emergence herbicide test. The following applies: Xanthium strumarium, read-out: % plant inhibition (Cobu); for inhibition at 1120 g/ha: 1.12 kg/ha. In outline:
as §2

Assay [18] concerns Annual bluegrass. The assay is described as follows: Post-emergence herbicide test. The settings on record: read-out: % plant inhibition (Anbg); for inhibition at 1120 g/ha: 1.12 kg/ha. In outline:
as §2

The subject of assay [19] is Seedling johnsongrass. Nature of the assay: Post-emergence herbicide test. The settings on record: Sorghum halepense, read-out: % plant inhibition (Sejg); for inhibition at 1120 g/ha: 1.12 kg/ha. In short, it runs like this: as §2
In assay [20] the test system is Wild buckwheat. The assay is described as follows: Post-emergence herbicide test. The following applies: Fallopia convolvulus, read-out: % plant inhibition (Wibw); for inhibition at 1120 g/ha: 1.12 kg/ha. In outline: as §2

Broadly, the inhibition is the drop in the measured response relative to a control, in per cent. Regarding `CCOC(=O)CON=Cc1cc(-c2nn(C)c(C(F)(F)F)c2Cl)c(F)cc1Cl` [Compound 129], the inhibition at 1120 g/ha in the assay on Morningglory [1] was 100%; in the assay with Yellow nutsedge [2], 0%; in the assay on Indian Mustard [3], 90%; in the assay on Downy Brome [4], 40%; in the assay on Barnyardgrass [5], 20%; in the assay with Velvetleaf [6], 100%. Also, the inhibition at 1120 g/ha with Cocklebur [7] came out at 90%; with Annual bluegrass [8] it was 0%; with Seedling johnsongrass [9] it was 60%; in the assay on Wild buckwheat [10], 100%; with Morningglory [11] it was 90%; in the assay with Yellow nutsedge [12], 30%. Besides, the inhibition at 1120 g/ha with Indian Mustard [13] worked out at 90%; with Downy Brome [14], 80%; with Barnyardgrass [15], 80%; with Velvetleaf [16], 100%; in the assay on Cocklebur [17], 100%; in the assay with Annual bluegrass [18], 40%. For the same molecule, the inhibition at 1120 g/ha in the assay on Seedling johnsongrass [19] amounted to 90%; with Wild buckwheat [20] it was 100%.

Consider `Cn1nc(-c2cc(C=NOCC(=O)O)c(Cl)cc2F)c(Cl)c1C(F)(F)F` [Compound 130, ((((2-chloro-5-(4-chloro-1-methyl-5-(trifluoromethyl)-1H-pyrazol-3-yl)-4-fluorophenyl)methylene)amino)oxy)acetic acid], for which the inhibition at 1120 g/ha stood at 100% with Morningglory [1]; 20% with Yellow nutsedge [2]; 100% in the assay with Indian Mustard [3]; 30% in the assay on Downy Brome [4]; 30% with Barnyardgrass [5]; 100% in the assay on Velvetleaf [6]. Besides, the inhibition at 1120 g/ha with Cocklebur [7] amounted to 90%; with Annual bluegrass [8] it was 0%; with Seedling johnsongrass [9], 70%; in the assay with Wild buckwheat [10] it was 90%; in the assay on Morningglory [11] it was 100%; in the assay with Yellow nutsedge [12], 20%. The inhibition at 1120 g/ha in the assay with Indian Mustard [13] worked out at 40%; with Downy Brome [14], 30%; with Barnyardgrass [15], 40%; in the assay on Velvetleaf [16], 100%; in the assay on Cocklebur [17] it was 100%; with Annual bluegrass [18], 20%. In addition, the inhibition at 1120 g/ha in the assay on Seedling johnsongrass [19] turned out to be 70%; in the assay with Wild buckwheat [20], 100%.

Consider `Cn1nc(-c2cc(C=NOCC(N)=O)c(Cl)cc2F)c(Cl)c1C(F)(F)F` [Compound 131], for which the inhibition at 1120 g/ha with Morningglory [1] worked out at 100%; with Yellow nutsedge [2] it was 20%; with Indian Mustard [3] it was 90%; with Downy Brome [4] it was 30%; with Barnyardgrass [5], 40%; in the assay on Velvetleaf [6], 100%. For the same molecule, the inhibition at 1120 g/ha is 80% in the assay on Cocklebur [7]; 0% in the assay with Annual bluegrass [8]; 70% with Seedling johnsongrass [9]; 100% in the assay on Wild buckwheat [10]; 100% in the assay with Morningglory [11]; 30% in the assay with Yellow nutsedge [12]. The inhibition at 1120 g/ha in the assay on Indian Mustard [13] is 40%; in the assay with Downy Brome [14] it was 20%; with Barnyardgrass [15] it was 0%; in the assay on Velvetleaf [16], 100%; in the assay with Cocklebur [17] it was 100%; with Annual bluegrass [18], 20%. The inhibition at 1120 g/ha in the assay on Seedling johnsongrass [19] turned out to be 50%; in the assay with Wild buckwheat [20], 100%.

As to `Cn1nc(-c2cc(C(Br)Br)c(Cl)cc2F)c(Cl)c1C(F)(F)F` [Compound 132, 4-chloro-3-[4-chloro-5-(dibromomethyl)-2-fluorophenyl]-1-methyl-5-(trifluoromethyl)-1H-pyrazole], the inhibition at 11210 g/ha in the assay on Morningglory [1] (11.21 kg/ha) turned out to be 100%; in the assay with Yellow nutsedge [2] (11.21 kg/ha), 30%; in the assay with Indian Mustard [3] (11.21 kg/ha), 90%; in the assay with Downy Brome [4] (11.21 kg/ha), 80%; with Barnyardgrass [5] (11.21 kg/ha), 90%; in the assay with Velvetleaf [6] (11.21 kg/ha) it was 100%. The inhibition at 11210 g/ha in the assay on Cocklebur [7] (11.21 kg/ha) amounted to 70%; in the assay on Annual bluegrass [8] (11.21 kg/ha), 60%; in the assay on Seedling johnsongrass [9] (11.21 kg/ha), 70%; in the assay with Wild buckwheat [10] (11.21 kg/ha) it was 100%; in the assay with Morningglory [11] (11.21 kg/ha), 100%; with Yellow nutsedge [12] (11.21 kg/ha), 30%. The inhibition at 11210 g/ha with Indian Mustard [13] (11.21 kg/ha) came to 100%; in the assay with Downy Brome [14] (11.21 kg/ha), 80%; in the assay with Barnyardgrass [15] (11.21 kg/ha) it was 100%; with Velvetleaf [16] (11.21 kg/ha), 100%; in the assay on Cocklebur [17] (11.21 kg/ha) it was 100%; in the assay with Annual bluegrass [18] (11.21 kg/ha), 60%. Besides, the inhibition at 11210 g/ha with Seedling johnsongrass [19] (11.21 kg/ha) and in the assay on Wild buckwheat [20] (11.21 kg/ha) was 100% each time.

In the case of `Cn1nc(-c2cc(C=O)c(Cl)cc2F)c(Cl)c1C(F)(F)F` [Compound 133, 2-chloro-5-[4-chloro-1-methyl-5-(trifluoromethyl)-1H-pyrazol-3-yl]-4-fluorobenzaldehyde], the inhibition at 1120 g/ha came to 70% in the assay on Morningglory [1]; 20% in the assay on Yellow nutsedge [2]; 100% with Indian Mustard [3]; 0% in the assay on Downy Brome [4]; 80% in the assay with Barnyardgrass [5]; 100% in the assay on Velvetleaf [6]. Moreover, the inhibition at 1120 g/ha in the assay on Cocklebur [7] was determined as 40%; in the assay with Annual bluegrass [8], 20%; with Seedling johnsongrass [9], 80%; in the assay with Wild buckwheat [10], 70%; in the assay with Morningglory [11], 100%; in the assay on Yellow nutsedge [12], 40%. Further, the inhibition at 1120 g/ha is 40% with Indian Mustard [13]; 20% in the assay with Downy Brome [14]; 50% in the assay on Barnyardgrass [15]; 100% with Velvetleaf [16]; 100% with Cocklebur [17]; 0% in the assay on Annual bluegrass [18]. In addition, the inhibition at 1120 g/ha with Seedling johnsongrass [19] was determined as 50%; in the assay on Wild buckwheat [20] it was 80%.

For the molecule `Cn1nc(-c2cc(C(=O)OC3CCCCC3)c(Cl)cc2F)c(Cl)c1C(F)(F)F` [Compound 134], the inhibition at 1120 g/ha in the assay on Morningglory [1] amounted to 20%; in the assay on Yellow nutsedge [2], 0%; in the assay with Indian Mustard [3] it was 60%; in the assay on Downy Brome [4] it was 70%; with Barnyardgrass [5] it was 10%; with Velvetleaf [6], 70%. Also, the inhibition at 1120 g/ha is 30% with Cocklebur [7]; 50% in the assay with Annual bluegrass [8]; 40% in the assay with Seedling johnsongrass [9]; 90% in the assay with Wild buckwheat [10]; 100% in the assay with Morningglory [11]; 20% in the assay with Yellow nutsedge [12]. Also, the inhibition at 1120 g/ha with Indian Mustard [13], in the assay with Downy Brome [14], in the assay on Barnyardgrass [15], in the assay on Velvetleaf [16], in the assay with Cocklebur [17] and with Annual bluegrass [18] was 100% throughout. Moreover, the inhibition at 1120 g/ha in the assay on Seedling johnsongrass [19] and in the assay on Wild buckwheat [20] was 100% throughout.

With `CCC(C)OC(=O)c1cc(-c2nn(C)c(C(F)(F)F)c2Cl)c(F)cc1Cl` (centres unmarked) [Compound 136], the inhibition at 1120 g/ha was found to be 80% with Morningglory [1]; 0% in the assay with Yellow nutsedge [2]; 90% in the assay on Indian Mustard [3]; 100% in the assay on Downy Brome [4]; 70% with Barnyardgrass [5]; 90% in the assay with Velvetleaf [6]. In addition, the inhibition at 1120 g/ha with Cocklebur [7] amounted to 80%; in the assay on Annual bluegrass [8], 90%; with Seedling johnsongrass [9], 90%; with Wild buckwheat [10], 100%; in the assay with Morningglory [11] it was 100%; with Yellow nutsedge [12] it was 10%. In addition, the inhibition at 1120 g/ha with Indian Mustard [13], in the assay on Downy Brome [14], in the assay with Barnyardgrass [15], in the assay on Velvetleaf [16], with Cocklebur [17] and in the assay with Annual bluegrass [18] was 100% each time. Besides, the inhibition at 1120 g/ha in the assay with Seedling johnsongrass [19] and in the assay on Wild buckwheat [20] was 100% throughout.

The values are drawn from patent publication US5530126A, “Process for the preparation of substituted 6-(pyrazol-3yl)-1,4-benzoxazin-3-ones” (Monsanto Company, priority 1994, dated 1996).
